Measurements: PMC10825133, “Repurposing proteasome inhibitors for improved treatment of triple-negative breast cancer” (Cell Death Discovery, 2024)
Where two headings read alike, the source gives them in different places.

Assays:
Assay in all cases: Resazurin-based cell viability assay, monotherapy drug screen
Parameters in all cases: species or system human; AUC: scale not given here
[1] = tested on: HCC1806 cells; conditions: HCC1806; for AUC: area under the dose response curve, 24 h; for GRmax: drug efficacy at highest tested dose (<0 cytotoxic, 0 cytostatic, >0 partial growth inhibition); for IC50: Homo sapiens
Description: (§1) Eighteen pharmaceutical compounds were purchased from Selleckchem. […] The stock solutions were stored at -80°C. […] New drug plates were prepared for each drug screen.
(§2) To determine the optimal seeding density and ensure that the cells were in the exponential phase during the duration of the experiment (approx. 52h), each cell line (BT-549, CAL-148, HCC1806, HCC38, HCC70, MCF-10A, MCF-7, MDA-MB-436, MDA-MB-453, and MDA-MB-468) was seeded at different concentrations (1000 to 16000 cells) per 96-well, as previously described. Cell viability was measured daily (day 0 [plating day] to day 4) using 0.2 mg/ml resazurin solution prepared from resazurin sodium salt (Fisher Scientific) dissolved in sterile 1xPBS (ThermoFisher Scientific). Before use, the resazurin solution was brought to RT before 10 µl (10% of cell medium volume) was added to each 96-well and incubated for 4h at 37°C. The absorbance was measured with a 560 nm excitation filter and a 615 nm emission filter in a Wallac 1420 VICTOR2™ microplate reader (Perkin Elmer). The slope of the curve was used to determine the optimal seeding density, i.e., the highest seeding density with linear growth between days 1 and 3.

[2] = tested on: MDA-MB-468 cells; conditions: MDA-MB-468; for IC50: Homo sapiens; for AUC: area under the dose response curve, 24 h
Description: as §1, §2

[3] = tested on: MDA-MB-453 cells; conditions: MDA-MB-453; for IC50: Homo sapiens; for AUC: area under the dose response curve, 24 h
Description: as §1, §2

[4] = tested on: HCC70 cells; conditions: HCC70; for AUC: area under the dose response curve, 24 h; for GRmax: drug efficacy at highest tested dose (<0 cytotoxic, 0 cytostatic, >0 partial growth inhibition); for IC50: Homo sapiens
Description: as §1, §2

[5] = tested on: MCF-10A cells; conditions: for IC50: Homo sapiens; for AUC: area under the dose response curve, 24 h
Description: as §1, §2

[6] = tested on: MCF-7 cells; conditions: MCF-7; for IC50: Homo sapiens, MCF7; for AUC: area under the dose response curve, 24 h; for GRmax: drug efficacy at highest tested dose (<0 cytotoxic, 0 cytostatic, >0 partial growth inhibition)
Description: as §1, §2

[7] = tested on: MDA-MB-436 cells; conditions: MDA-MB-436; for IC50: Homo sapiens, growth rate inhibition concentration at GR(c) = 0.5, 24 h, read-out: GR50 (the source's name); for AUC: area under the dose response curve, 24 h; for GRmax: drug efficacy at highest tested dose (<0 cytotoxic, 0 cytostatic, >0 partial growth inhibition)
Description: as §1, §2

[8] = tested on: BT-549 cells; conditions: BT-549; for AUC: area under the dose response curve, 24 h; for GRmax: drug efficacy at highest tested dose (<0 cytotoxic, 0 cytostatic, >0 partial growth inhibition); for IC50: Homo sapiens
Description: as §1, §2

[9] = tested on: HCC38 cells; conditions: HCC38; for AUC: area under the dose response curve, 24 h; for GRmax: drug efficacy at highest tested dose (<0 cytotoxic, 0 cytostatic, >0 partial growth inhibition); for IC50: Homo sapiens
Description: as §1, §2

[10] = growth rate inhibition concentration at GR(c) = 0.5, 24 h, read-out: GR50 (the source's name)
[11] = 24 h drug treatment, read-out: IC50

Compound | AUC [1] | GRmax [1] | IC50 [1, 10] | IC50 [2, 11] | IC50 [2, 10] | AUC [2] | IC50 [3, 10] | AUC [3] | AUC [4] | GRmax [4] | IC50 [4, 11] | IC50 [4, 10] | IC50 [5, 11] | IC50 [5, 10] | AUC [5] | IC50 [6, 10] | AUC [6] | GRmax [6] | IC50 [7] | AUC [7] | other results
COc1cccc2c1C(=O)c1c(O)c3c(c(O)c1C2=O)C[C@@](O)(C(=O)CO)C[C@@H]3O[C@H]1C[C@H](N)[C@@H](O)[C@H](C)O1 [Epirubicin] | 0.86 | 0.45 | 6200 nM | 2200 nM | 960 nM | 0.80 | 3200 nM | 0.90 | 0.83 | −0.49 | 1600 nM | 1000 nM | 690 nM | 690 nM | 0.69 | 1100 nM | 0.89 | 0.42 | 3600 nM | 0.84 | IC50 [3, 11]: 5300 nM; IC50 [6, 11]: 1500 nM; GRmax [7]: 0.26; AUC [8]: 0.88; GRmax [8]: 0.34; IC50 [8, 11]: 4600 nM; IC50 [8, 10]: 4300 nM; AUC [9]: 0.81; GRmax [9]: −0.03; IC50 [9, 11]: 2300 nM; IC50 [9, 10]: 690 nM
COC[C@H](NC(=O)c1cnc(C)s1)C(=O)N[C@@H](COC)C(=O)N[C@@H](Cc1ccccc1)C(=O)[C@@]1(C)CO1 [Oprozomib] | 0.85 | 0.42 | 6000 nM | 3200 nM | 390 nM | 0.76 | 3500 nM | 0.84 | 0.89 | −0.10 | 7600 nM | 3700 nM | 2000 nM | 360 nM | 0.79 | 270 nM | 0.88 | −0.45 | 75 nM | 0.84 | IC50 [1, 11]: 6000 nM; GRmax [7]: −0.93; AUC [8]: 0.81; GRmax [8]: 0.38; IC50 [8, 10]: 940 nM; AUC [9]: 0.73; GRmax [9]: −0.98; IC50 [9, 11]: 680 nM; IC50 [9, 10]: 330 nM
CC(C)C[C@H](NC(=O)CNC(=O)c1cc(Cl)ccc1Cl)B1OC(=O)C(CC(=O)O)(CC(=O)O)O1 [MLN 9708, MLN-9708] | 0.79 | 0.47 | 4300 nM | 800 nM | 100 nM | 0.72 | 1800 nM | 0.88 | 0.82 | −0.34 | 4800 nM | 1200 nM | 380 nM | 70 nM | 0.72 | 270 nM | 0.87 | −0.48 | 110 nM | 0.86 | GRmax [7]: −0.82; AUC [8]: 0.80; GRmax [8]: 0.43; IC50 [8, 10]: 840 nM; AUC [9]: 0.59; GRmax [9]: −0.99; IC50 [9, 11]: 130 nM; IC50 [9, 10]: 69 nM
